For one data set, the target named is T1, OATP1B1 (Homo sapiens, UniProt Q9Y6L6).
T1 sequence (Q9Y6L6 1-691): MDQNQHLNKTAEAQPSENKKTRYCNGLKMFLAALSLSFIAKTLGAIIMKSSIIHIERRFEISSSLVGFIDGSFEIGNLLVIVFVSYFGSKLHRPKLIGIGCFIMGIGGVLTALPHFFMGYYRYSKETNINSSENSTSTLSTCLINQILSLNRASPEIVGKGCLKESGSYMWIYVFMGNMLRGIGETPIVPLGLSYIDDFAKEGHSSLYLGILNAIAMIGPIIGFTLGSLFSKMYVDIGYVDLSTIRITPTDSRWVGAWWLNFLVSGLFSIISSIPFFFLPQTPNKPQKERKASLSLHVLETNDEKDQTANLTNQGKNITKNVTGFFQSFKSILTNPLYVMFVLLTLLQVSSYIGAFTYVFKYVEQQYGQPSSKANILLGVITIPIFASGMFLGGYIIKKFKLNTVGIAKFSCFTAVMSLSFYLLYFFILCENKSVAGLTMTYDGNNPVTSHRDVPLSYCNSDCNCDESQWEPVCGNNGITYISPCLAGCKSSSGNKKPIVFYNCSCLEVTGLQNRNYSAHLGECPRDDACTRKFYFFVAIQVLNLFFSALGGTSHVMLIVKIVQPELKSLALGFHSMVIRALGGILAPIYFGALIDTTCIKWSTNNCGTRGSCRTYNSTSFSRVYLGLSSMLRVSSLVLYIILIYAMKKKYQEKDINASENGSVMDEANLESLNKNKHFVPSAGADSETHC
It counts as cell-based. The following applies: hek-oatp1b1 cells.

Another data set deals with T2, OATP2B1 (Homo sapiens, UniProt O94956).
T2 sequence (O94956 1-709): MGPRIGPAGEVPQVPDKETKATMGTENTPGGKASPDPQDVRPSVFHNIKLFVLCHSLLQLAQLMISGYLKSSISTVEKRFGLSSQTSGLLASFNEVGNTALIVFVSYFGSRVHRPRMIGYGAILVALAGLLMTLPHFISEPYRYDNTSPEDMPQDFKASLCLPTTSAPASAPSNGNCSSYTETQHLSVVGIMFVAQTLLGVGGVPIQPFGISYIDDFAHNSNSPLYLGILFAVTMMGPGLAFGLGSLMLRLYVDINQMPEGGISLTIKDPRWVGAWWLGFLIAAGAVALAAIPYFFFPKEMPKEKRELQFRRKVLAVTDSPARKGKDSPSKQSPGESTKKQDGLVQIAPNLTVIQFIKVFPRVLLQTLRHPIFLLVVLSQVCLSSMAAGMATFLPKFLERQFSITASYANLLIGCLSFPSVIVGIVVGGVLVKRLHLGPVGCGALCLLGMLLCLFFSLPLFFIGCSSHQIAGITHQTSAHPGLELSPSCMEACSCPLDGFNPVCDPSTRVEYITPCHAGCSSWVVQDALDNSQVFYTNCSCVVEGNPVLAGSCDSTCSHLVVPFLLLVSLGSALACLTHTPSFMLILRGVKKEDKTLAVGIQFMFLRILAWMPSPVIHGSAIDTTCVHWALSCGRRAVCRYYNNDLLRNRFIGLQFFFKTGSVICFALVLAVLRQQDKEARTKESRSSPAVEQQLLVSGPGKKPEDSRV
In kind it is cell-based.

For `N=C(N)Nc1ccc(C(=O)Oc2ccc(CC(=O)O)cc2)cc1` [GBPA, 4-(4-guanidinobenzoyloxy)phenylacetic acid], the inhibition at 100 µM against OATP1B1 was about 50%. The molecule also came in with an IC50 against OATP2B1 of 11.1 ± 3.3 µM.

As usually defined, the inhibition is the percentage by which the read-out fell short of the control. Read a high inhibition as a strong effect. By IC50 is commonly meant the concentration that gives 50% inhibition.

The values above are taken from publication PMC9748837 (Chemico-Biological Interactions, 2021).
